# Reference: patent publication US20210278408A1, “METHODS OF TREATMENT OF CANCER WITH SUBSTITUTED PYRROLE AND PYRAZOLE COMPOUNDS AND DIAGNOSIS OF CANCERS SUSCEPTIBLE TO TREATMENT WITH SUBSTITUTED PYRROLE AND PYRAZOLE COMPOUNDS” (Bantam Pharmaceutical, LLC, priority 2018, published 2021)
# pEC50, pIC50: −log10 of the molar value. Read-outs that look alike come from different tables or passages of the source.
# Tests used:
# [1] = test system: BJAB (malignant human B-cell-line); test: BJAB cell proliferation; assay type: cell-based
# Description: In certain embodiments, the therapeutic compound is one of the compounds of the compound table below. […] In certain embodiments, the therapeutic compound is a compound having an activity as “A,” “B” or “C” in the table below. In certain embodiments, the therapeutic compound is a compound having an activity as “A” or “B” in the table below. In certain embodiments, the therapeutic compound is a compound having an activity as “A” in the table below.
# In certain embodiments, the therapeutic compound is one of the compounds of the compound table below, optionally provided as a pharmaceutically-acceptable salt or N-oxide, and/or a solvate or hydrate. […] In certain embodiments, the therapeutic compound is a compound having an activity as “A,” “B” or “C” in the table below. In certain embodiments, the therapeutic compound is a compound having an activity as “A” or “B” in the table below. In certain embodiments, the therapeutic compound is a compound having an activity as “A” in the table below.
# ATF4 = ATF4 induction by immunofluorescence in HCT-116 cells transfected with tGFP or FAM210B-GFP; assay type: cell-based, human; set-up: compound mediated ATF4 induction versus FAM210B expression: dose or concentration left out as unconfirmed
# Description: FIG. 17 is a set of fluorescence micrographs of HCT-116 cells transfected with a vector expressing tGFP (left) or FAM210B-GFP (right).
# FIG. 18 is a graph of ATF4 expression versus GFP expression for HCT-116 cells transfected with a vector expressing tGFP or FAM210B-GFP.
# HCT-116 cells were transfected with a vector expressing tGFP or FAM210B-GFP. […] Following 4 hrs of drug treatment the cells were fixed, permeabilized, and ATF4 levels determined by immunofluorescence (IF), and FAM210B levels were determined by detection of GFP. Cells were binned based on median ATF4 protein expression and ranked relative to level of FAM210B-tGFP.
# MDA-MB-157 = test: Anti-proliferative activity, CellTiter-Glo, 72 hours: MDA-MB-157; assay type: cell-based, human; conditions: MDA-MB-157 (breast cancer); 72 hours; Cell-Titre-Glo
# Experimental: (§1) Anti-proliferative activity of BTM compounds. The anti-proliferative activities of Compound A197 and Compound B19 were compared to 4EGI-1 (a known cancer cell growth inhibitor) in a panel of 99 tumor lines. Methods: A panel of 96 tumor and 3 normal cell lines were tested for sensitivity to the test compound. The cell lines were cultured in standard media and pipetted into 96-well plates at the required plating densities. The cells were acclimated for 24 hours prior to compound testing. Compound was prepared as a stock of 20 mM in DMSO. To prepare dose response curves compound was serially diluted in DMSO and dispensed into the plate wells using a Tecan D300e digital dispenser. The final DMSO concentration was 0.15%. After 72 hours of incubation cell number was determined using the CellTiter-Glo® protocol according to the manufacturers instructions (Promega). In this assay, ATP is measured as a surrogate of cell number. The activity of the compound is determined by comparing untreated cells with treated cells and calculating the % of signal retained. Compound activity is measured as an EC50 of maximum level of efficacy and the two are used to compute an activity area. The table below provides a comparison of activity in a data sample.
# HT-1080 = test: Anti-proliferative activity, CellTiter-Glo, 72 hours: HT-1080; assay type: cell-based, human; conditions: HT-1080 (fibrosarcoma), Cell-Titre-Glo
# Experimental: as §1
# SK-MEL-28 = test: Anti-proliferative activity, CellTiter-Glo, 72 hours: SK-MEL-28; assay type: cell-based, human; conditions: SK-MEL-28 (melanoma), Cell-Titre-Glo
# Experimental: as §1
# Jurkat = test: Anti-proliferative activity, CellTiter-Glo, 72 hours: Jurkat; assay type: cell-based, human; conditions: Jurkat (T cell leukemia), Cell-Titre-Glo
# Experimental: as §1
# A549 = test: Anti-proliferative activity, CellTiter-Glo, 72 hours: A549; assay type: cell-based, human; conditions: A549 (non-small cell lung cancer), Cell-Titre-Glo
# Experimental: as §1
# NCI-H460 = test: Anti-proliferative activity, CellTiter-Glo, 72 hours: NCI-H460; assay type: cell-based, human; conditions: NCI-H460 (non-small cell lung cancer), Cell-Titre-Glo
# Experimental: as §1
# LoVo = test: Anti-proliferative activity, CellTiter-Glo, 72 hours: LoVo; assay type: cell-based, human; conditions: LoVo (colorectal cancer), Cell-Titre-Glo
# Experimental: as §1
# NCI-H2122 = test: Anti-proliferative activity, CellTiter-Glo, 72 hours: NCI-H2122; assay type: cell-based, human; conditions: NCI-H2122 (non-small cell lung cancer), Cell-Titre-Glo
# Experimental: as §1
# SU-DHL-10 = test: Anti-proliferative activity, CellTiter-Glo, 72 hours: SU-DHL-10; assay type: cell-based, human; conditions: SU-DHL-10 (B-cell lymphoma), Cell-Titre-Glo
# Experimental: as §1
# MIA PaCa-2 = test: Anti-proliferative activity, CellTiter-Glo, 72 hours: MIA PaCa-2; assay type: cell-based, human; conditions: MIA PaCa-2 (pancreactic cancer (carcinoma)), Cell-Titre-Glo
# Experimental: as §1
# HCT-116 = test: Anti-proliferative activity, CellTiter-Glo, 72 hours: HCT-116; assay type: cell-based, human; conditions: HCT-116 (colorectal cancer), Cell-Titre-Glo
# Experimental: as §1
# HUVEC = test: Anti-proliferative activity, CellTiter-Glo, 72 hours: HUVEC; assay type: cell-based, human; conditions: HUVEC (primary endolithial cells), Cell-Titre-Glo
# Experimental: as §1
# MDA-MB-231 = test: Anti-proliferative activity, CellTiter-Glo, 72 hours: MDA-MB-231; assay type: cell-based, human; conditions: MDA-MB-231 (breast cancer), Cell-Titre-Glo
# Experimental: as §1
# SU-DHL-4 = test: Anti-proliferative activity, CellTiter-Glo, 72 hours: SU-DHL-4; assay type: cell-based, human; conditions: SU-DHL-4 (B-cell lymphoma), Cell-Titre-Glo
# Experimental: as §1
# HK-2 = test: Anti-proliferative activity, CellTiter-Glo, 72 hours: HK-2; assay type: cell-based, human; conditions: HK-2 (kidney epilithial), Cell-Titre-Glo
# Experimental: as §1
# SU-DHL-6 = test: Anti-proliferative activity, CellTiter-Glo, 72 hours: SU-DHL-6; assay type: cell-based, human; conditions: SU-DHL-6 (B-cell lymphoma), Cell-Titre-Glo
# Experimental: as §1
# [2] = BJAB (malignant human B-cell-line) cell proliferation, EC50, read-out: BJAB
molecule,measurement,setting,value
"Cc1nn(-c2nc(C3=CCC(C(F)(F)F)CC3)c(SC(C)C)s2)c(C(=O)O)c1-c1cccc(F)c1 (stereo not drawn) [Compound B5, 4-(3-fluorophenyl)-1-(5-(isopropylthio)-4-(4-(trifluoromethyl)cyclohex-1-en-1-yl)thiazol-2-yl)-3-methyl-1H-pyrazole-5-carboxylic acid]",pEC50,[1]; [2],> 6.00
same,compound mediated ATF4 induction versus FAM210B expression,"ATF4; HCT-116 transfected with tGFP or FAM210B-GFP, 4 hrs, immunofluorescence",induction of ATF4 is inhibited by FAM210B expression in HCT-116 cells
same,effect of PERK inhibitors on compound mediated induction of ATF4,ATF4; follow-up studies,no effect
"O=C(O)C(Cc1ccccc1[N+](=O)[O-])=NNc1nc(-c2ccc(Cl)c(Cl)c2)cs1 (mixture of isomers) [Compound 4EGI-1, 4EGI-1, reference compound]",pIC50,MDA-MB-157,4.93
same,pIC50,HT-1080,5.33
same,pIC50,SK-MEL-28,4.48
same,pIC50,Jurkat,4.88
same,pIC50,A549,4.66
same,pIC50,NCI-H460,5.02
same,pIC50,LoVo,4.85
same,pIC50,NCI-H2122,4.86
same,pIC50,SU-DHL-10,4.71
same,pIC50,MIA PaCa-2,4.85
same,pIC50,HCT-116,4.98
same,pIC50,HUVEC,5.10
same,pIC50,MDA-MB-231,5.24
same,pIC50,SU-DHL-4,5.07
same,pIC50,HK-2,4.34
same,pIC50,SU-DHL-6,5.14
arsenite [reference compound],effect of FAM210B expression on induction of ATF4 by the agent,ATF4,no effect
"Cc1nn(-c2nc(N3CCN(CC(F)(F)F)CC3)c(SC(C)C)s2)c(C(=O)O)c1-c1cccc(F)c1 [Compound B23, 4-(3-fluorophenyl)-1-(5-(isopropylthio)-4-(4-(2,2,2-trifluoroethyl)piperazin-1-yl)thiazol-2-yl)-3-methyl-1H-pyrazole-5-carboxylic acid]",pEC50,[1]; [2],5.00 to 5.30
"Cc1nn(-c2nc(N3CCN(C(C)(C)C)C(=O)C3)c(SC(C)C)s2)c(C(=O)O)c1-c1cccc(F)c1 [Compound B46, 1-(4-(4-(tert-butyl)-3-oxopiperazin-1-yl)-5-(isopropylthio)thiazol-2-yl)-4-(3-fluorophenyl)-3-methyl-1H-pyrazole-5-carboxylic acid]",pEC50,[1]; [2],< 4.70
"Cc1nn(-c2nc(-c3ccc(OC(F)(F)F)cc3)c(SC(C)C)s2)c(C(=O)O)c1-c1cccc(F)c1 [Compound A223, 4-(3-fluorophenyl)-1-(5-(isopropylthio)-4-(4-(trifluoromethoxy)phenyl)thiazol-2-yl)-3-methyl-1H-pyrazole-5-carboxylic acid]",pEC50,"[1]; Homo sapiens, BJAB cell proliferation, read-out: EC50",5.30 to 6.00
"COCCOC1(C(F)(F)F)CCN(c2nc(-n3nc(C)c(-c4cccc(F)c4)c3C(=O)O)sc2SC(C)C)CC1 [Compound B48, 4-(3-fluorophenyl)-1-(5-(isopropylthio)-4-(4-(2-methoxyethoxy)-4-(trifluoromethyl)piperidin-1-yl)thiazol-2-yl)-3-methyl-1H-pyrazole-5-carboxylic acid]",pEC50,[1]; [2],5.30 to 6.00
"Cc1nn(-c2nc(-c3ccc(C(F)(F)F)cc3)c(-c3ccc(C(F)(F)F)cc3)s2)cc1-c1cccc(F)c1 [Compound B39, 2-(4-(3-fluorophenyl)-3-methyl-1H-pyrazol-1-yl)-4,5-bis(4-(trifluoromethyl)phenyl)thiazole]",pEC50,[1]; [2],< 4.70
"COCC(=O)N(C)c1ccc(-c2sc(-n3nc(C)c(-c4cccc(F)c4)c3C(=O)O)nc2-c2ccc(C(F)(F)F)cc2)cc1 [Compound B55, 4-(3-fluorophenyl)-1-(5-(4-(2-methoxy-N-methylacetamido)phenyl)-4-(4-(trifluoromethyl)phenyl)thiazol-2-yl)-3-methyl-1H-pyrazole-5-carboxylic acid]",pEC50,[1]; [2],< 4.70
"CC(C)=Cc1nc(-n2nc(C)c(-c3cccc(F)c3)c2C(=O)O)sc1-c1ccc(C(F)(F)F)cc1 [Compound B37, 4-(3-fluorophenyl)-3-methyl-1-(4-(2-methylprop-1-en-1-yl)-5-(4-(trifluoromethyl)phenyl)thiazol-2-yl)-1H-pyrazole-5-carboxylic acid]",pEC50,[1]; [2],4.60 to 5.00
"COc1ccc(-c2nc(-n3nc(C)c(-c4cccc(F)c4)c3C(=O)O)sc2-c2ccc(OC)cc2)cc1 [Compound B44, 1-(4,5-bis(4-methoxyphenyl)thiazol-2-yl)-4-(3-fluorophenyl)-3-methyl-1H-pyrazole-5-carboxylic acid]",pEC50,[1]; [2],4.60 to 5.00
"COCc1sc(-n2nc(C)c(-c3cccc(F)c3)c2C(=O)O)nc1-c1ccc(C(F)(F)F)cc1 [Compound B57, 4-(3-fluorophenyl)-1-(5-(methoxymethyl)-4-(4-(trifluoromethyl)phenyl)thiazol-2-yl)-3-methyl-1H-pyrazole-5-carboxylic acid]",pEC50,[1]; [2],5.00 to 5.30
"Cc1nn(-c2nnc(-c3ccc(C(F)(F)F)cc3)s2)c(C(=O)O)c1-c1cccc(F)c1 [Compound B30, 4-(3-fluorophenyl)-3-methyl-1-(5-(4-(trifluoromethyl)phenyl)-1,3,4-thiadiazol-2-yl)-1H-pyrazole-5-carboxylic acid]",pEC50,[1]; [2],< 4.70
"COCC(=O)Nc1ccc(-c2sc(-n3nc(C)c(-c4cccc(F)c4)c3C(=O)O)nc2-c2ccc(C(F)(F)F)cc2)cc1 [Compound B51, 4-(3-fluorophenyl)-1-(5-(4-(2-methoxyacetamido)phenyl)-4-(4-(trifluoromethyl)phenyl)thiazol-2-yl)-3-methyl-1H-pyrazole-5-carboxylic acid]",pEC50,[1]; [2],4.60 to 5.00
tunicamycin [reference compound],effect of FAM210B expression on induction of ATF4 by the agent,ATF4; alternate pathways of ATF4 induction,no effect
"Cc1nn(-c2nc(N3CCC4(CC3)CC4)c(SC(C)C)s2)c(C(=O)O)c1-c1cccc(F)c1 [Compound B41, 4-(3-fluorophenyl)-1-(5-(isopropylthio)-4-(6-azaspiro[2.5]octan-6-yl)thiazol-2-yl)-3-methyl-1H-pyrazole-5-carboxylic acid]",pEC50,[1]; [2],5.30 to 6.00
"CCN1CCN(c2nc(-n3nc(C)c(-c4cccc(F)c4)c3C(=O)O)sc2SC(C)C)CC1 [Compound B26, 1-(4-(4-ethylpiperazin-1-yl)-5-(isopropylthio)thiazol-2-yl)-4-(3-fluorophenyl)-3-methyl-1H-pyrazole-5-carboxylic acid]",pEC50,[1]; [2],< 4.70
"Cc1nn(-c2nc(C3CCC(C(F)(F)F)CC3)cs2)c(C(=O)O)c1-c1cccc(F)c1 (stereo not drawn) [Compound B21, 4-(3-fluorophenyl)-3-methyl-1-(4-(4-(trifluoromethyl)cyclohexyl)thiazol-2-yl)-1H-pyrazole-5-carboxylic acid]",pEC50,[1]; [2],< 4.70
"Cc1nn(-c2nc(C3=CCC(C)CC3)c(SC(C)C)s2)c(C(=O)O)c1-c1cccc(F)c1 (stereo not drawn) [Compound B4, 4-(3-fluorophenyl)-1-(5-(isopropylthio)-4-(4-methylcyclohex-1-en-1-yl)thiazol-2-yl)-3-methyl-1H-pyrazole-5-carboxylic acid]",pEC50,[1]; [2],5.30 to 6.00
